Molecules are shown by their SMILES. Where only a bound is given, the exact number is not on record here.

For assay [1], the target named is T1, human Siglec-2/CD22 protein (Homo sapiens, UniProt P20273).
T1 construct: purchased Acro Biosystems SI2-H82E3
T1 sequence (P20273 20-847): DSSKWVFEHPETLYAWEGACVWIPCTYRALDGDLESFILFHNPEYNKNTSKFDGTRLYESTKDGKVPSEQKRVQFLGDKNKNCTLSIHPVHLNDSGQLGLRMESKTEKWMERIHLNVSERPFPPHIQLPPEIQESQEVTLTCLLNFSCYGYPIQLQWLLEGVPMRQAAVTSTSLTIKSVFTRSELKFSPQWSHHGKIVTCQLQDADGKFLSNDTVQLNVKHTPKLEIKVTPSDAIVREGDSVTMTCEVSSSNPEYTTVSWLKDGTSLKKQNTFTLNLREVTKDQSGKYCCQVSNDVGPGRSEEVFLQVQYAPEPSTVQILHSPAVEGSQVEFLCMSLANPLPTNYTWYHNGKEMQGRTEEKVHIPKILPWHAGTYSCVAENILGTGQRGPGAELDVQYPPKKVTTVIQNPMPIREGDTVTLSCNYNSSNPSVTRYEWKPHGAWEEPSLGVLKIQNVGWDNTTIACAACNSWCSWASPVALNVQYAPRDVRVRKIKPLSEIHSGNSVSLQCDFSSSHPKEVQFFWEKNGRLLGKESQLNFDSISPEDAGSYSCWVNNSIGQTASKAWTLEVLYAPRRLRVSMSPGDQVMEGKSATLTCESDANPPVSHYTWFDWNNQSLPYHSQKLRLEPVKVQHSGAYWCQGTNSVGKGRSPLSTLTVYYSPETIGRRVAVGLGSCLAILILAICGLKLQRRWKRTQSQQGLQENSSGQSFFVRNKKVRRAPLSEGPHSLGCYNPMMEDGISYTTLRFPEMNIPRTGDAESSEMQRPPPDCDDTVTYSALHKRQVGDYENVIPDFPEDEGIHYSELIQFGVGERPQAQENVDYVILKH
The assay can be described thus: SPR binding affinity to human CD22. Conditions: steady-state analysis. Summed up:
(§1)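 Using a Biacore 8K, compounds were tested against biotinylated CD22 captured after sialidase treatment. The running buffer held 1% DMSO, corrected with a 0.5–2% DMSO series. Affinity was derived by steady-state analysis.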
On the technique in general: In SPR one partner is held on a chip, and binding of the other changes the refractive index at the surface.

For assay [2], the target named is T2, mouse Siglec-2-Fc-Avi (CD22) (Mus musculus, UniProt P35329).
T2 construct: made in house
T2 sequence (P35329 22-708 limits assumed): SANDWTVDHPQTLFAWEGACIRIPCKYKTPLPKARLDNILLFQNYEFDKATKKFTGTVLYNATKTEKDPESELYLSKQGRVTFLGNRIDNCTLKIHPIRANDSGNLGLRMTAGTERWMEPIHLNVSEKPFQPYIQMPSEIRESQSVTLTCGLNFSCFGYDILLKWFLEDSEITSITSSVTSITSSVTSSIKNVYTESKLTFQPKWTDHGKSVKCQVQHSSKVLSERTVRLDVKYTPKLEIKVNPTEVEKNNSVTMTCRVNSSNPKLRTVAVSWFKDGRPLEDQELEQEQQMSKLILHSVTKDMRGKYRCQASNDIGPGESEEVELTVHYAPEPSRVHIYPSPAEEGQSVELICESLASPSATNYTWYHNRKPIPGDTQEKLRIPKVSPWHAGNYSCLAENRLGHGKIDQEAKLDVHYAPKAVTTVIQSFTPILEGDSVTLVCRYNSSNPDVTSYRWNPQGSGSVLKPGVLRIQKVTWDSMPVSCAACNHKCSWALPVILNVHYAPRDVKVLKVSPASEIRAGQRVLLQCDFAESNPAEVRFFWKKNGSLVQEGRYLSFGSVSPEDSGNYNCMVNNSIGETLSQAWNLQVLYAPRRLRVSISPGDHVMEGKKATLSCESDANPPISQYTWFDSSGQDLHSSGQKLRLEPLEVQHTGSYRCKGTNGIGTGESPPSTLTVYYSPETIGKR
The experiment in a line: SPR binding affinity to mouse CD22. Conditions: steady-state analysis. A digest of the protocol: as §1

The target in assay [3] is cynomolgus Siglec-2/CD22 (Macaca fascicularis, UniProt A0A2K5WCZ6). The assay can be described thus: biochemical. The format is binding. Particulars: SPR, steady-state analysis; read-out: Affinity cyno CD22. Summed up:
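SPR with desialylated (SialoExo, 4 h, 37° C.) cynomolgus CD22 amine-coupled to a CM5 chip. Running buffer 10 mM HEPES, 150 mM NaCl, 0.05% Tween-20, pH 7.5, 1% DMSO, with solvent correction; 120 s dissociation. Affinities from steady-state analysis.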

Chain of cynomolgus Siglec-2/CD22 (A0A2K5WCZ6 entry or part of it): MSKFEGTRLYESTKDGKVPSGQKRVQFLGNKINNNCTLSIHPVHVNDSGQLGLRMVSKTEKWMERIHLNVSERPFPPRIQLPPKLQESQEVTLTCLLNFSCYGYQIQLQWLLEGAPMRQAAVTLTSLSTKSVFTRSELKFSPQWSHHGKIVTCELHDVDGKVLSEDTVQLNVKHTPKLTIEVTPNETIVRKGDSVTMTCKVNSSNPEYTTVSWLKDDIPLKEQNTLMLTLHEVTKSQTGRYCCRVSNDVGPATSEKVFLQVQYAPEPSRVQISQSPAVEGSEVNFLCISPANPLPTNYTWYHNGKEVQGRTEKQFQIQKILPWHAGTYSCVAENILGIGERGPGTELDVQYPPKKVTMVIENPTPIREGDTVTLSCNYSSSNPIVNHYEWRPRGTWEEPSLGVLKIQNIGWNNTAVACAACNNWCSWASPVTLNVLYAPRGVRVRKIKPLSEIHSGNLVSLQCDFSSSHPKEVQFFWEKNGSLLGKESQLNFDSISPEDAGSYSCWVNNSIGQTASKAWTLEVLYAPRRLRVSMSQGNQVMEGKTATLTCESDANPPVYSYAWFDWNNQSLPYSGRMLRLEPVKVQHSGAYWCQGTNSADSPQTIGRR

`C#CCOCCOCCO[C@@]1(C(=O)O)O[C@@H]([C@H](O)[C@H](O)CNC(=O)Cc2ccc(-c3ccccc3)cc2)[C@H](NC(=O)CO)[C@@H](NC(=O)CC)[C@@H]1O` [Compound 178, (2R,3S,4R,5R,6R)-6-((1R,2R)-3-(2-([1,1′-biphenyl]-4-yl)acetamido)-1,2-dihydroxypropyl)-3-hydroxy-5-(2-hydroxyacetamido)-2-(2-(2-(prop-2-yn-1-yloxy)ethoxy)ethoxy)-4-propionamidotetrahydro-2H-pyran-2-carboxylic acid]: the values for the Kd in assay [1], in assay [2] and in assay [3] were 1000 to 10000 nM, over 10000 nM and 1000 to 10000 nM, respectively.

On to `C#CCOCCOCCNc1c(NCCCCCCO[C@]2(C(=O)O)C[C@H](O)[C@@H](NC(=O)CO)[C@H]([C@H](O)[C@H](O)CNC(=O)c3cccc(C(F)F)c3)O2)c(=O)c1=O` [Compound 233, (2R,4S,5R,6R)-6-((1R,2R)-3-(3-(difluoromethyl)benzamido)-1,2-dihydroxypropyl)-2-((6-((3,4-dioxo-2-((2-(2-(prop-2-yn-1-yloxy)ethoxy)ethyl)amino)cyclobut-1-en-1-yl)amino)hexyl)oxy)-4-hydroxy-5-(2-hydroxyacetamido)tetrahydro-2H-pyran-2-carboxylic acid], for which the Kd in assay [1], in assay [2] and in assay [3] was 1000 to 10000 nM in each case.

As for `CC(=O)NCCOCCOCCOCCOCCNc1c(NCCCCCCO[C@]2(C(=O)O)C[C@H](O)[C@@H](NC(=O)CO)[C@H]([C@H](O)[C@H](O)CNC(=O)Cc3ccc(-c4nnn[nH]4)cc3)O2)c(=O)c1=O` [Cpd. 265, (2R,4S,5R,6R)-6-((1R,2R)-3-(2-(4-(1H-tetrazol-5-yl)phenyl)acetamido)-1,2-dihydroxypropyl)-2-((6-((3,4-dioxo-2-((2-oxo-6,9,12,15-tetraoxa-3-azaheptadecan-17-yl)amino)cyclobut-1-en-1-yl)amino)hexyl)oxy)-4-hydroxy-5-(2-hydroxyacetamido)tetrahydro-2H-pyran-2-carboxylic acid], the Kd in assay [1], in assay [2] and in assay [3] was under 1000 nM each time.

For `CC(=O)NCCOCCOCCOCCOCCNc1c(NCCCCCCO[C@]2(C(=O)O)C[C@H](O)[C@@H](NC(=O)CO)[C@H]([C@H](O)[C@H](O)CNC(=O)Cc3ccc(C(F)F)cc3)O2)c(=O)c1=O` [Cpd. 258, (2R,4S,5R,6R)-6-((1R,2R)-3-(2-(4-(difluoromethyl)phenyl)acetamido)-1,2-dihydroxypropyl)-2-((6-((3,4-dioxo-2-((2-oxo-6,9,12,15-tetraoxa-3-azaheptadecan-17-yl)amino)cyclobut-1-en-1-yl)amino)hexyl)oxy)-4-hydroxy-5-(2-hydroxyacetamido)tetrahydro-2H-pyran-2-carboxylic acid], the Kd in assay [1], in assay [2] and in assay [3] was under 1000 nM each time.

In the case of `C#CCOCCOCCO[C@]1(C(=O)O)C[C@H](O)[C@@H](NC(=O)CO)[C@H]([C@H](O)[C@H](O)CNC(=O)Cc2ccc(-c3ccccc3)nc2)O1` [Compound 79, (2R,4S,5R,6R)-6-((1R,2R)-1,2-dihydroxy-3-(2-(6-phenylpyridin-3-yl)acetamido)propyl)-4-hydroxy-5-(2-hydroxyacetamido)-2-(2-(2-(prop-2-yn-1-yloxy)ethoxy)ethoxy)tetrahydro-2H-pyran-2-carboxylic acid], the results for the Kd in assay [1], in assay [2] and in assay [3] were 1000 to 10000 nM, over 10000 nM and over 10000 nM, respectively.

As for `C#CCCOc1ccc(CS[C@]2(C(=O)O)C[C@H](O)[C@@H](NC(=O)CO)[C@H]([C@H](O)[C@H](O)CNC(=O)Cc3ccc(Cl)c(O)c3)O2)cc1` [Compound 131, (2S,4S,5R,6R)-2-((4-(but-3-yn-1-yloxy)benzyl)thio)-6-((1R,2R)-3-(2-(4-chloro-3-hydroxyphenyl)acetamido)-1,2-dihydroxypropyl)-4-hydroxy-5-(2-hydroxyacetamido)tetrahydro-2H-pyran-2-carboxylic acid], the Kd in assay [1], in assay [2] and in assay [3] was under 1000 nM each time.

Take `C#CCOCCOCCO[C@]1(C(=O)O)C[C@H](O)[C@@H](NC(=O)CO)[C@H]([C@H](O)[C@H](O)CNC(=O)c2ccc(O)cc2)O1` [Compound 198, (2R,4S,5R,6R)-6-((1R,2R)-1,2-dihydroxy-3-(4-hydroxybenzamido)propyl)-4-hydroxy-5-(2-hydroxyacetamido)-2-(2-(2-(prop-2-yn-1-yloxy)ethoxy)ethoxy)tetrahydro-2H-pyran-2-carboxylic acid]: the Kd in assay [1], in assay [2] and in assay [3] was over 10000 nM each time.

On to `C#CCOCCCCCCO[C@]1(C(=O)O)C[C@H](O)[C@@H](NC(=O)CO)[C@H]([C@H](O)[C@H](O)CNC(=O)Cc2ccc(-c3nnn[nH]3)cc2)O1` [Compound 176, (2R,4S,5R,6R)-6-((1R,2R)-3-(2-(4-(1H-tetrazol-5-yl)phenyl)acetamido)-1,2-dihydroxypropyl)-4-hydroxy-5-(2-hydroxyacetamido)-2-((6-(prop-2-yn-1-yloxy)hexyl)oxy)tetrahydro-2H-pyran-2-carboxylic acid], for which the Kd in assay [1], in assay [2] and in assay [3] was under 1000 nM in each case.

Take `C#CCOCCCCCCO[C@]1(C(=O)O)C[C@H](O)[C@@H](NC(=O)CO)[C@H]([C@H](O)[C@H](O)CNC(=O)Cc2ccc(-c3ccc4[nH]cc(C)c4c3)cc2)O1` [Compound 1, (2R,4S,5R,6R)-6-((1R,2R)-1,2-dihydroxy-3-(2-(4-(3-methyl-1H-indol-5-yl)phenyl)acetamido)propyl)-4-hydroxy-5-(2-hydroxyacetamido)-2-((6-(prop-2-yn-1-yloxy)hexyl)oxy)tetrahydro-2H-pyran-2-carboxylic acid]: the Kd in assay [1], in assay [2] and in assay [3] was under 1000 nM in each case.

On to `C#CCOCCOCCNc1c(NCCCCCCO[C@]2(C(=O)O)C[C@H](O)[C@@H](NC(=O)CO)[C@H]([C@H](O)[C@H](O)CNC(=O)C(F)(F)c3ccccc3)O2)c(=O)c1=O` [Compound 41, (2R,4S,5R,6R)-6-((1R,2R)-3-(2,2-difluoro-2-phenylacetamido)-1,2-dihydroxypropyl)-2-((6-((3,4-dioxo-2-((2-(2-(prop-2-yn-1-yloxy)ethoxy)ethyl)amino)cyclobut-1-en-1-yl)amino)hexyl)oxy)-4-hydroxy-5-(2-hydroxyacetamido) tetrahydro-2H-pyran-2-carboxylic acid], for which the Kd in assay [1], in assay [2] and in assay [3] was 1000 to 10000 nM each time.

As for `O=C(Cc1ccc(-c2ccc(O)cc2)cc1)NC[C@@H](O)[C@@H](O)[C@@H]1O[C@](C(=O)O)(n2cc(-c3ccccc3O)nn2)C[C@H](O)[C@H]1NC(=O)CO` [Compound 54, (2R,4S,5R,6R)-6-((1R,2R)-1,2-dihydroxy-3-(2-(4′-hydroxy-[1,1′-biphenyl]-4-yl)acetamido)propyl)-4-hydroxy-5-(2-hydroxyacetamido)-2-(4-(2-hydroxyphenyl)-1H-1,2,3-triazol-1-yl)tetrahydro-2H-pyran-2-carboxylic acid], the Kd in assay [1] was under 1000 nM; in assay [2], over 10000 nM; in assay [3] it was 1000 to 10000 nM.

Values taken from US20250064941A1, “SIGLEC LIGANDS, CONJUGATES, AND METHODS OF USE THEREOF” (Osprey Biopharmaceuticals, Inc., priority 2023, published 2025).
